Read-outs that look alike come from different tables or passages of the source.
Assays:
CDK2/cyclinA = biological target: T1, CDK2/cyclinA (Homo sapiens, UniProt P24941); experiment: CDK2/cyclinA kinase assay, IMAP fluorescence polarization; type: biochemical
T1 construct: purchased Millipore
Method: (§1) Kinase assays were performed on recombinant purified enzymes using the non-radioactive IMAP fluorescence polarization assay format.
(§2) Compound stocks were prepared and diluted in DMSO and were added to kinase reactions at a 1/100 dilution for a final concentration of 1% DMSO. The components were added together to final concentrations listed in the tables below and incubated for two hours at room temperature.
(§3) The reactions were stopped by addition of stop solution.
CDK2: final stop concentration is 1× Developer buffer (100% A), IMAP beads 1/400
(§4) The samples were allowed to incubate for one more hour at room temperature and then the fluorescence polarization was measured. The plate normalized millipolarization (mP) values were plotted against the log of compound concentration for each compound and IC50 values were calculated using the spotfire IC50 calculator and confirmed by visual analysis.

CDK9/cyclinT1 = biological target: T2, CDK9/cyclinT1 (Homo sapiens, UniProt P50750); experiment: CDK9/cyclinT1 kinase assay, IMAP fluorescence polarization; type: biochemical
T2 construct: purchased Millipore
Method: as §1, §2, §3
CDK9/CDK1/CDK7: final stop concentration is 1× Developer buffer (85% A/15% B), IMAP beads 1/400
as §4

CDK1/cyclinB = biological target: T3, CDK1/cyclinB (Homo sapiens, UniProt P06493); experiment: CDK1/cyclinB kinase assay, IMAP fluorescence polarization; type: biochemical
T3 construct: purchased Millipore
Method: as §1, §2, §3
The samples were allowed to incubate for one more hour at room temperature and then the fluorescence polarization was measured.

CDK4 = CDK4 (Homo sapiens, UniProt P11802); experiment: CDK4 kinase assay (Table F); type: biochemical
CDK5 = CDK5 (Homo sapiens, UniProt Q00535); experiment: CDK5 kinase assay (Table F); type: biochemical
[1] = system: RNA Polymerase II CTD Serine2 Phosphorylation; experiment: H5 (Ser2) Ab High Content Screen: RNA Polymerase II CTD Serine2 Phosphorylation Assay in Hep3B cells; type: cell-based; conditions: Homo sapiens, 2 hours with compound, H5 antibody staining
Method: H5 (also referred as Ser2) Ab High Content Screen: RNA Polymerase II CTD Serine2 Phosphorylation Assay
1. Cells are plated into 384 well plates: 30 μl of Hep3B cells (4,000 cells/30 μl) in DMEM with 3% FBS are plated into wells of a tissue culture treated clear bottomed 384 well plate. Cells are allowed to adhere during an overnight incubation.
2. Cells are treated with compounds for two hours: 10 μl of DMEM with 3% FBS is added to each well with a final concentration of DMSO equal to 1%. Cells are incubated with compounds for 2 hours.
3. Cells are fixed and permeabilized. Cells are washed with 30 mM HEPES pH=7.3 then fixed in 4% paraformaldehyde in 30 mM HEPES pH=7.3 for one hour at room temperature. The fix is removed by washing the cells with Tris buffered saline (TBS) and the cells are permeabilized by incubation in TBS with 0.5% triton X-100 for 30 minutes at room temperature. Triton is removed by washing the cells with TBS.
4. […] Incubate primary H5 Ab (1/250 ) overnight at 4 degrees in TBS with 1% BSA and 0.1% Tween-20. The next day wash cells with TBS. […] Wash cells with PBS.
5. Measure staining using the In-cell Analyzer system from GE Healthcare.

T2 sequence (P50750 whole entry): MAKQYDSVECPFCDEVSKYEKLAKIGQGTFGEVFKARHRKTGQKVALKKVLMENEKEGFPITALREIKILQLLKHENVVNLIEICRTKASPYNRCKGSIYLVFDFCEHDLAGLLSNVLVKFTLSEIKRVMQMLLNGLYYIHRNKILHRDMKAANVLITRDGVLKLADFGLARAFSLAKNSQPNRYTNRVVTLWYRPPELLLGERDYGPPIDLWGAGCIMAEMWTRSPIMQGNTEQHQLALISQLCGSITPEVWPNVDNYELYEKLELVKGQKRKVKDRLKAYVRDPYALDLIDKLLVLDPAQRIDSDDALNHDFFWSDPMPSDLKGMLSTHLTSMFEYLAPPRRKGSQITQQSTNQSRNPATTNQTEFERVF
T2 sequence (O60563 whole entry partner): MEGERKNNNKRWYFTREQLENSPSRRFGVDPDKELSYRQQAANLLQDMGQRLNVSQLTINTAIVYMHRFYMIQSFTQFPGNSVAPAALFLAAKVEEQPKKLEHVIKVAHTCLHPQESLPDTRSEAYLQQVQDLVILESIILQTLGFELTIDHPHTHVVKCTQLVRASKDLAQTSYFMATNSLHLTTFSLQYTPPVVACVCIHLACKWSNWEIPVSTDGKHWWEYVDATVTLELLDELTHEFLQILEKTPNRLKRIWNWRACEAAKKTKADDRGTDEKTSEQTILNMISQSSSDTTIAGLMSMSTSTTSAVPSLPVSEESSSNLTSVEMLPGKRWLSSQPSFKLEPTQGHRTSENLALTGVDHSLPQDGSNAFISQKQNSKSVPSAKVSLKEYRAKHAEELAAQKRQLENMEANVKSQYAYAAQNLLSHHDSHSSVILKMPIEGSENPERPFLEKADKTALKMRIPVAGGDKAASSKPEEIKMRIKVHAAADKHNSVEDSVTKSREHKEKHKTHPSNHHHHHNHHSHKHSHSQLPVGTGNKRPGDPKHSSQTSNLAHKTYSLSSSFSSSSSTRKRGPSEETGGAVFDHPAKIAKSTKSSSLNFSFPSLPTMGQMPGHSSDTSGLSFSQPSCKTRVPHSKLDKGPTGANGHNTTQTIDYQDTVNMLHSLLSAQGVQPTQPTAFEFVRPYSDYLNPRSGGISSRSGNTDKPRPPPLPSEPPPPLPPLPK
CDK5, sequence (Q00535 whole entry, species assumed): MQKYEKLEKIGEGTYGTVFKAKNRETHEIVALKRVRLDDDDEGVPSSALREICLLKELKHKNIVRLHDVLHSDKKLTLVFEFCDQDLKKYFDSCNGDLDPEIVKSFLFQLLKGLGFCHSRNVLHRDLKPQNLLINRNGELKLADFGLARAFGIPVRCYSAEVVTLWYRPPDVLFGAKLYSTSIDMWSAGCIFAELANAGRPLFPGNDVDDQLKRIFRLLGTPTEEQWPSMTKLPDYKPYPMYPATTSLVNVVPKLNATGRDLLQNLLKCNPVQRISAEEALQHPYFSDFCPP
CDK5, sequence (Q15078 whole entry partner, species assumed): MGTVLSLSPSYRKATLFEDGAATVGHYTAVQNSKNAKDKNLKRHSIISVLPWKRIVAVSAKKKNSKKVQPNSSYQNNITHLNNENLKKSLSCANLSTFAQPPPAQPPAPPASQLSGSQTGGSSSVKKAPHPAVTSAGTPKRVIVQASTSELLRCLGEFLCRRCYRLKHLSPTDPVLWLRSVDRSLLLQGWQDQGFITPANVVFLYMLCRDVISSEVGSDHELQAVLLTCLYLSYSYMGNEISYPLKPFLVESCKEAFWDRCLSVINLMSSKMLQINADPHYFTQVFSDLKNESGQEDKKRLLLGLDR
CDK4, sequence (P11802 whole entry, species assumed): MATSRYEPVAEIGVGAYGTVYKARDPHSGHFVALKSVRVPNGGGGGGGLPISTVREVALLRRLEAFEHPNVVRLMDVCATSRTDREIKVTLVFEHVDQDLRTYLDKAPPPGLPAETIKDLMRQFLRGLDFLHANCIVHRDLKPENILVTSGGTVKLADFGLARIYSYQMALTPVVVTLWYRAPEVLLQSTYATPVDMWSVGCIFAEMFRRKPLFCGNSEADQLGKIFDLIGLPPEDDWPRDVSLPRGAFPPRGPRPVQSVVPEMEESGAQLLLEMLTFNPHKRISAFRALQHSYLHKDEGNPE
CDK4, sequence (P24385 whole entry partner, species assumed): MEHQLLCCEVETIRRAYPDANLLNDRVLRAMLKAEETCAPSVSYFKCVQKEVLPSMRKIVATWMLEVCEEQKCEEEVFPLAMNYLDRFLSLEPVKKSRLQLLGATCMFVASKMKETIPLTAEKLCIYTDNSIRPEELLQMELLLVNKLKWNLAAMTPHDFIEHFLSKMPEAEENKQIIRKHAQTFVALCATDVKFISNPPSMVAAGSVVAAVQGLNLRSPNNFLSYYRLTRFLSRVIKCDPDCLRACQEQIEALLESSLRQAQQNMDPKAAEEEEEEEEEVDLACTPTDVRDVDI
T3 sequence (P06493 whole entry): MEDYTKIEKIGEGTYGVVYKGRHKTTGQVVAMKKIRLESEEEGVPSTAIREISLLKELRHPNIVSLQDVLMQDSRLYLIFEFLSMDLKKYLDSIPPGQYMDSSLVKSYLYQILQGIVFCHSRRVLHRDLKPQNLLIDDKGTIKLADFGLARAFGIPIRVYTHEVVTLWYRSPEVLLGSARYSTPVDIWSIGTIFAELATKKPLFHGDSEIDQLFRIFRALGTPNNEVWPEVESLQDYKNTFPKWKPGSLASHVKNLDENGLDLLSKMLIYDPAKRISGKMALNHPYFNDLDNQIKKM
T3 sequence (P14635 whole entry partner): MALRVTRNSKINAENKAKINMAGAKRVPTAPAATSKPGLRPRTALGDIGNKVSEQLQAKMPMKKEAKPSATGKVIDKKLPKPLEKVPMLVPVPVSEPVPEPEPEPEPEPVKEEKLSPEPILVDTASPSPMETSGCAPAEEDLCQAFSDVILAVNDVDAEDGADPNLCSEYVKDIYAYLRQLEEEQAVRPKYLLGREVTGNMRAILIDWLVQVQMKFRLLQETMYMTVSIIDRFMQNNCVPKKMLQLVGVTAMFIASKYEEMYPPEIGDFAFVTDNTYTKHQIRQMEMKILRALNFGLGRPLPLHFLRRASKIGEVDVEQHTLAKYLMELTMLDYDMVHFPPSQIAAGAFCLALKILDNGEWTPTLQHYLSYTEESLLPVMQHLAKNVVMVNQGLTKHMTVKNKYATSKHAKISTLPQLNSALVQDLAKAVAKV

Structure (SMILES) | IC50 (CDK2/cyclinA) [µM] | IC50 (CDK9/cyclinT1) [µM] | IC50 (CDK1/cyclinB; read-out: CDK1 IC50) [µM] | IC50 (CDK4) [µM] | IC50 (CDK5) [µM] | IC50 [1] [µM] | IC50 (CDK1/cyclinB) [µM]
Clc1cccc(Nc2nccc(-c3cccnc3NCCc3c[nH]cn3)n2)c1 [Compound 79] | < 5 | < 5 | < 5 | 15 to 50 | < 5 | – | –
COc1ncccc1-c1ccnc(Nc2cccc(-c3cnco3)c2)n1 [Compound 110, [4-(2-Methoxy-pyridin-3-yl)-pyrimidin-2-yl]-(3-oxazol-5-yl-phenyl)-amine] | < 5 | < 5 | < 5 | – | – | < 5 | –
CC(=O)NCC(C)(C)CNc1ncccc1-c1ccnc(Nc2cccc(Cl)c2)n1 [Compound 73, N-(3-{3-[2-(3-Chloro-phenylamino)-pyrimidin-4-yl]-pyridin-2-ylamino}-2,2-dimethyl-propyl)-acetamide] | < 5 | < 5 | < 5 | 15 to 50 | 5 to 15 | 5 to 15 | –
CCN(CC)S(=O)(=O)c1cccc(Nc2nccc(-c3cccnc3OC)n2)c1 [Compound 105, N,N-Diethyl-3-[4-(2-methoxy-pyridin-3-yl)-pyrimidin-2-ylamino]-benzenesulfonamide] | > 50 | > 50 | > 50 | 15 to 50 | 5 to 15 | – | –
CCCCNS(=O)(=O)c1cccc(Nc2nccc(-c3cccnc3OC)n2)c1 [Compound 102, N-Butyl-3-[4-(2-methoxy-pyridin-3-yl)-pyrimidin-2-ylamino]-benzenesulfonamide] | < 5 | < 5 | < 5 | – | – | 15 to 50 | –
NS(=O)(=O)c1cccc(Nc2nccc(-c3cccnc3NCCCn3ccnc3)n2)c1 [Compound 83, 3-{4-[2-(3-Imidazol-1-yl-propylamino)-pyridin-3-yl]-pyrimidin-2-ylamino}-benzenesulfonamide] | < 5 | < 5 | < 5 | 15 to 50 | < 5 | – | –
COc1ncccc1-c1ccnc(Nc2ccc3cn[nH]c3c2)n1 [Compound 112, (1H-Indazol-6-yl)-[4-(2-methoxy-pyridin-3-yl)-pyrimidin-2-yl]-amine] | < 5 | < 5 | – | – | – | < 5 | < 5
CC(=O)NCCCNc1ncccc1-c1ccnc(Nc2cccc(S(N)(=O)=O)c2)n1 [Compound 68, N-(3-{3-[2-(3-Sulfamoyl-phenylamino)-pyrimidin-4-yl]-pyridin-2-ylamino}-propyl)-acetamide] | < 5 | < 5 | < 5 | 15 to 50 | < 5 | – | –
CC(=O)NCCCNc1ncccc1-c1ccnc(Nc2cccc(C#N)c2)n1 [Compound 69, N-(3-{3-[2-(3-Cyano-phenylamino)-pyrimidin-4-yl]-pyridin-2-ylamino}-propyl)-acetamide] | < 5 | < 5 | < 5 | 15 to 50 | < 5 | – | –
COc1cnccc1-c1nc(Nc2cccc(S(N)(=O)=O)c2)ncc1C [Compound 47, 3-[4-(3-Methoxy-pyridin-4-yl)-5-methyl-pyrimidin-2-ylamino]-benzenesulfonamide] | < 5 | < 5 | 5 to 15 | < 5 | < 5 | – | –
CC(=O)NCCCNc1ncccc1-c1ccnc(Nc2cccc(S(C)(=O)=O)c2)n1 [Compound 67, N-(3-{3-[2-(3-Methanesulfonyl-phenylamino)-pyrimidin-4-yl]-pyridin-2-ylamino}-propyl)-acetamide] | 5 to 15 | < 5 | > 50 | 15 to 50 | 5 to 15 | – | –
Cc1cnccc1-c1ccnc(Nc2cccc(Cl)c2)n1 [Compound 44, (3-Chloro-phenyl)-[4-(3-methyl-pyridin-4-yl)-pyrimidin-2-yl]-amine] | < 5 | < 5 | < 5 | 15 to 50 | < 5 | – | –
COc1ncccc1-c1ccnc(Nc2ccc(N3CCN(C)CC3)cc2)n1 [Compound 117, [4-(2-Methoxy-pyridin-3-yl)-pyrimidin-2-yl]-[4-(4-methyl-piperazin-1-yl)-phenyl]-amine] | < 5 | < 5 | 5 to 15 | < 5 | < 5 | – | –
CC(=O)NCCCNc1cc(-c2ccnc(Nc3cccc(Cl)c3)n2)cc(C)n1 [Compound 42, N-(3-{4-[2-(3-Chloro-phenylamino)-pyrimidin-4-yl]-6-methyl-pyridin-2-ylamino}-propyl)-acetamide] | < 5 | < 5 | < 5 | – | – | < 5 | –
CC(=O)NCCCOc1ncccc1-c1ccnc(Nc2cccc(Cl)c2)n1 [Compound 121, N-(3-{3-[2-(3-Chloro-phenylamino)-pyrimidin-4-yl]-pyridin-2-yloxy}-propyl)-acetamide] | 15 to 50 | < 5 | 5 to 15 | 15 to 50 | 15 to 50 | – | –
Cc1c(-c2ccnc(Nc3cccc(Cl)c3)n2)ccnc1NCCCN1CCOCC1 [Compound 22, (3-Chloro-phenyl)-{4-[3-methyl-2-(3-morpholin-4-yl-propylamino)-pyridin-4-yl]-pyrimidin-2-yl}-amine] | < 5 | < 5 | 5 to 15 | – | – | 5 to 15 | –
Cc1c(-c2ccnc(Nc3cccc(Cl)c3)n2)ccnc1NCCCN1CCCC1=O [Compound 24, 1-(3-{4-[2-(3-Chloro-phenylamino)-pyrimidin-4-yl]-3-methyl-pyridin-2-ylamino}-propyl)-pyrrolidin-2-one] | < 5 | < 5 | 5 to 15 | – | 5 to 15 | 15 to 50 | –
NCCCOc1ncccc1-c1ccnc(Nc2cccc(Cl)c2)n1 [Compound 120, {4-[2-(3-Amino-propoxy)-pyridin-3-yl]-pyrimidin-2-yl}-(3-chloro-phenyl)-amine] | 15 to 50 | < 5 | < 5 | 15 to 50 | < 5 | – | –
Cc1c(-c2ccnc(Nc3cccc(Cl)c3)n2)ccnc1NCc1ccccc1 [Compound 21, [4-(2-Benzylamino-3-methyl-pyridin-4-yl)-pyrimidin-2-yl]-(3-chloro-phenyl)-amine] | < 5 | < 5 | < 5 | – | – | 5 to 15 | –
Clc1cccc(Nc2nccc(-c3ccnc4ccccc34)n2)c1 [Compound 48, (3-Chloro-phenyl)-(4-quinolin-4-yl-pyrimidin-2-yl)-amine] | – | < 5 | < 5 | 5 to 15 | < 5 | < 5 | –
Cc1c(-c2ccnc(Nc3cccc(Cl)c3)n2)ccnc1Cl [Compound 2, [4-(2-Chloro-3-methyl-pyridin-4-yl)-pyrimidin-2-yl]-(3-chloro-phenyl)-amine] | > 50 | < 5 | > 50 | – | – | > 50 | –
O=C1CCCN1CCCNc1ncccc1-c1ccnc(Nc2cccc(Cl)c2)n1 [Compound 77, 1-(3-{3-[2-(3-Chloro-phenylamino)-pyrimidin-4-yl]-pyridin-2-ylamino}-propyl)-pyrrolidin-2-one] | < 5 | < 5 | < 5 | – | – | – | –
CC(C)NCCCNc1ncccc1-c1ccnc(Nc2cccc(Cl)c2)n1 [Compound 64, N-{3-[2-(3-Chloro-phenylamino)-pyrimidin-4-yl]-pyridin-2-yl}-N′-isopropyl-propane-1,3-diamine] | < 5 | < 5 | < 5 | 5 to 15 | < 5 | – | –
CN(C)CCCNc1ncccc1-c1ccnc(Nc2cccc(Cl)c2)n1 [Compound 63, N-{3-[2-(3-Chloro-phenylamino)-pyrimidin-4-yl]-pyridin-2-yl}-N′,N′-dimethyl-propane-1,3-diamine] | < 5 | < 5 | < 5 | 5 to 15 | < 5 | – | –
CC(=O)NCCCCNc1ncccc1-c1ccnc(Nc2cccc(Cl)c2)n1 [Compound 85, N-(4-{3-[2-(3-Chloro-phenylamino)-pyrimidin-4-yl]-pyridin-2-ylamino}-butyl)-acetamide] | < 5 | < 5 | < 5 | – | – | – | –
